For assay [1], the system named is E. coli JM105/pYHNK 2 strain. Format: cell-based, Escherichia coli.
For assay [2], the system named is esterase in culture broth of E. coli JM105/pYHNK 2 strain.
Description: 0.02 g of N-benzylazetidin-2-carboxyilic acid ethyl ester, 1.0 ml t-butyl methyl ether and 3.5 ml of 100 mM monopotassium phosphate-dipotassium phosphate buffer (pH 7.0) were added in a 10 ml threaded test tube and kept at 35′ for 15 minutes. 200 μl of the esterase solution was put in the test tube to measure its esterase activity and shaken reciprocally (120 str/min) at 35° C. for 16 minutes. Then 400% 1 of the mixed solution was centrifuged (12000 rpm, 5 minutes) after 1 ml t-butyl methyl ether was added and stirred. 200 μl of the obtained aqueous phase was analyzed quantitatively (by absolute calibration curve method) with respect to N-benzylazetidin-2-carboxylic acid by high performance liquid chromatography after dissolved in 20 mM phosphate acid monopotassium water/acetonitrile=90/10 and filtered by a 0.2 μl filter.
The test system of assay [3] is esterase derived from Arthrobacter SC-6-98-28 in culture broth of E. coli JM105/pEAR5 strain. The conditions noted are these: stirred 24 hours at 30° C. As to the method:
Measurement of the Esterase Activity in Example 13 and 14:
To 5 ml of a diluted solution of the culture broth or sterilized solution obtained by the pre sent method was added 1 g of 2,2-dichloro-3-(1-propenyl)cyclopropane-1-carboxylic acid methyl ester (1R/1S=50/50, trans/cis98/2) and the resulting mixture was stirred at 45° C. for 30 minutes while maintaining the pH at 10.0. A portion of the reaction solution was sampled, acidified with hydrochloric acid, and extracted with ethyl acetate. The extract solution was analyzed by gas-chromatography to measure the hydrolysis rate (Internal standard: methyl cinnamate, column: HR20M 0.53 φ, 30 m, 1 μ, ULBON). The esterase activity was calculated from the hydrolysis rate.

Assay [4] concerns E. coli JM 105/pCC160S189Y363term strain. The conditions noted are these: stirred 24 hours at 30° C. As to the method: (§1) Number of viable cells was determined by the following method.
(§2) About 1 ml of a sample solution to be measured with the number of viable cells was diluted with physiological saline cooled to 4° C. 100 μl of the diluted solution was applied onto a LB-medium plate (L-Broth Ager (manufactured by BIO 101 Company, Ltd) containing ampicilline at a concentration of 100 μ/ml and kept at 37° C. for 1 to 2 days. Thereafter, number of the viable cells was calculated from the number of colonies grown thereon.

The test system of assay [5] is E. coli JM105/pEAR5 strain. Conditions: stirred 24 hours at 30° C. As to the method: as §1, §2
The test system of assay [6] is esterase derived from Chromobacterium SC-YM-1 (160S, 189Y mutant) in culture broth of E. coli JM 105/pCC160S189Y363term strain. The conditions noted are these: stirred 24 hours at 30° C. Here is the method:
Measurement of the enzyme activity was performed by using p-nitrophenyl acetate (pNPA) as a substrate. A sample enzyme solution was added to a 3.0 ml of 100 mM phosphate buffer solution (pH 7.5) containing the substrate at a concentration of 5 mM and the resulting mixture is maintained at 37° C. An amount of liberated p-nitrophenol was measured by the increase of absorbance at 405 nm.

The mark [7] stands for this setting: Example 9: 40 ml culture broth + 10 ml acetone, stirred 24 hours at 30° C.
[8] abbreviates: Example 10: 40 ml culture broth + 10 ml acetone, stirred 6 hours at 30° C.
The mark [9] stands for this setting: Example 11: 40 ml culture broth + 10 ml acetone, stirred 48 hours at 30° C.
Setting [10] is: Example 12: 40 ml culture broth + 6.5 ml acetone, stirred 24 hours at 30° C.
Where [11] appears, read: Example 1: 40 ml culture broth + 10 ml ethanol, stirred 24 hours at 30° C.
Where [12] appears, read: Example 2: 40 ml culture broth + 10 ml ethanol, stirred 6 hours at 30° C.
Setting [13] is: Example 3: 40 ml culture broth + 10 ml ethanol, stirred 48 hours at 30° C.
Where [14] appears, read: Example 4: 42.5 ml culture broth + 7.5 ml ethanol, stirred 24 hours at 30° C.
The mark [15] stands for this setting: Example 13: 45 g culture broth + 5 g ethanol.
Setting [16] is: Example 14: 37.5 g culture broth + 12.5 g ethanol.
The mark [17] stands for this setting: Example 15: 45 g culture broth + 5 g ethanol.
Setting [18] is: Example 16: 37.5 g culture broth + 12.5 g ethanol.
[19] abbreviates: Example 5: 40 ml culture broth + 10 ml methanol, stirred 24 hours at 30° C.
Where [20] appears, read: Example 6: 40 ml culture broth + 10 ml methanol, stirred 6 hours at 30° C.
Where [21] appears, read: Example 7: 40 ml culture broth + 10 ml methanol, stirred 48 hours at 30° C.
Setting [22] is: Example 8: 40 ml culture broth + 10 ml methanol, stirred 5 hours at 25° C.

SMILES strings stand for the structures. Like-named read-outs stand apart in the source and are kept apart here.

As to `CC(C)=O` [acetone], the viable cell number in assay [1] (setting [7]), in assay [1] (setting [8]), in assay [1] (setting [9]) and in assay [1] (setting [10]) was 0 cfu/ml in each case. Also, the “esterase activity of the mixed solution, relative to culture broth (1)” value in assay [2] (setting [7]), in assay [2] (setting [8]), in assay [2] (setting [9]) and in assay [2] (setting [10]) was ≥ 95% in each case.
As for `CCO` [ethanol], the viable cell number in assay [1] (setting [11]), in assay [1] (setting [12]), in assay [1] (setting [13]), in assay [1] (setting [14]), in assay [4] (setting [17]) and in assay [4] (setting [18]) was 0 cfu/ml each time. In addition, the viable cell number in assay [5] (setting [15]) and in assay [5] (setting [16]) was 0 cfu/ml in each case. Also, the “esterase activity of the solution, relative to culture broth (2)” value in assay [3] (setting [15]) and in assay [3] (setting [16]) was ≥ 95% each time. Further, the “esterase activity of the solution, relative to culture broth (3)” value in assay [6] (setting [17]) and in assay [6] (setting [18]) was ≥ 95% each time. Further, the “esterase activity of the mixed solution, relative to culture broth (1)” value in assay [2] (setting [11]), in assay [2] (setting [12]), in assay [2] (setting [13]) and in assay [2] (setting [14]) was ≥ 95% in each case.
In the case of `CO` [methanol], the viable cell number in assay [1] (setting [19]), in assay [1] (setting [20]), in assay [1] (setting [21]) and in assay [1] (setting [22]) was 0 cfu/ml each time. In addition, the “esterase activity of the mixed solution, relative to culture broth (1)” value is recorded as ≥ 95% in assay [2] (setting [19]), ≥ 95% in assay [2] (setting [20]) and ≥ 92% in assay [2] (setting [22]). Moreover, the “esterase activity of the mixed solution, relative to broth solution (1)” value in assay [2] (setting [21]) was ≥ 95%.
